Assay results published in patent US20240115672A1, “TREATMENT OF AN IOP CONDITION” (THE RESEARCH FOUNDATION FOR THE STATE UNIVERSITY OF NEW YORK, priority 2021, published 2024).

How the values were obtained:
[1] = test system: Mmp-2, Mmp-9, Mmp-13 mRNA in angle ring tissues; assay: Mmp expression in Tg-MYOCY437H angle ring tissues (Example 19); format: in vivo, mouse
Description: Eyes were flash frozen in liquid nitrogen after outflow facility determination and subsequently dissected on ice to obtain the angle ring tissues containing the TM, as previously described (Kumar, Shah et al. 2013). Dissected TM tissues were immersed in RNAlater solution (Invitrogen, Waltham, MA, USA) and then snap-frozen and stored at −80° C. until RNA extraction. Tissue collected was pooled (four eyes) and homogenized in TRIzol reagent for RNA isolation, per manufacturer's instructions (Life Technologies, Carlsbad, CA, USA). RNA concentration was determined with a Nanodrop ND-1000 Spectrophotometer (Thermo Scientific, Wilmington, DE, USA). cDNA was synthesized by using High-Capacity cDNA
Reverse Transcription Kit (Applied Biosystems, Waltham, MA, USA) according to manufacturer's protocol. Quantitative real-time PCR (qRT-PCR) was performed by using Green-2-Go qPCR Mastermix-ROX (Bio Basic, Amherst, NY, USA) on a QuantStudio 6 Flex thermal cycler (Applied Biosystems, Carlsbad, CA, USA). mRNA expression of Plat, Plait, Pai-1, Mmp-2, Mmp-9, and Mmp-13 in angle ring tissues was determined. Primers were designed by using Primer-BLAST (haps://www.ncbi.nlm.nih.gov/tools/primer-blast/index.cgi?LINK_LOC=BlastHome; in the public domain); primer sequences are listed in Table 2. Primer specificity was confirmed by agarose gel electrophoresis and multiple-sized amplification products were absent on inspection of melting curves. Target mRNA expression values were normalized to the expression levels of Rps11 (ribosomal protein S11). The relative fold change was calculated by using the ΔΔCt method (Hu, Wang et al. 2015). Outliers identified via the Thompson Tau test were removed from analysis.

[2] = intravitreal; toxicity attributed to arginine in the commercial preparations; cited from earlier work
[3] = test system: Mmp-9KO mice; assay: Outflow facility in protein treated Mmp-9KO mouse eyes (Example 16); format: in vivo; settings: Mmp-9KO eyes, intravitreal; p>0.05 ANOVA
From the text: Animals: 8- to 12-week-old female mice were used for this study. The animals were housed and bred at the State University of New York (SUNY) Downstate Health Sciences University Division of Comparative Medicine (Brooklyn. NY) under a 12-hour light/12-hour dark cycle and food ad libitum. C57BL/6J mice were obtained from The Jackson Laboratories (Bar Harbor, ME, USA). A PlatKO mouse colony was established from animals (stock No. 002508) obtained from The Jackson Laboratories. These animals are on a C57BL/61 background (www.jax.org/strain/002508). AnMmp-9KO mouse colony was established from animals (stock No. 007084) obtained from The Jackson Laboratories. These animals are on a mixed background but have been bred into the C57BL/6J background for five generations (www.jax.org/strain/007084). […]
Outflow facility determination: Mouse eyes were enucleated immediately after euthanasia. Outflow facility was determined using a constant pressure method, as previously described. […] Flow was constantly measured via a microfluidic flow sensor (0.07-1.5 uL/min, MFS1; Elveflow, Paris, France). […] Any eyes that developed visible leaks during outflow facility determination, or that had pressure-flow correlations with R^2<0.9, were excluded from analysis but were used for RNA quantification.

[4] = test system: sheep of the Coriedale breed; assay: IOP in prednisolone-treated sheep after tPA injection into the anterior chamber (Example 9); format: in vivo; settings: 0.0001 μg into the AC; IOP 23.0 mm Hg at 6:00 and 30:00 hrs after injection
Description: Methods. Lyophilized IPA, obtained as Acetilyse® from Boehringer Ingelheim S.A. (Buenos Aires) containing arginine. was used. Five sheep of the Coriedale breed were selected. Initially all eyes received instillation of 1% prednisolone 3 times/day for 10 days to elevate their IOP from 10 mm Hg to about 23 mm Hg. Then, 0.0001 μg was injected into one of the eyes and its effect was followed for up to 55:00 hrs while the instillation of prednisolone continued in both eyes. The same protocol was implemented for the 0.001 and 0.01 μg amounts (after extended washout) in the contra lateral eyes. Arginine, which is associated with 0.01 ug tPA, was injected alone and had no effect.

[5] = test system: sheep; assay: Sheep given tPA or arginine concurrently with prednisolone (Example 3 Protocol 2, Example 4); format: in vivo; settings: 11 days
Description: Protocol 2. In a second set of experiments, arginine was added to the BSS vehicle administered to the left eye to control for the relatively high concentration of the amino acid in the commercially available tPA lyophilisate. In these experiments all right eyes received 0.1 mg tPA, which concomitantly delivered 4.23 mg of arginine into the vitreous, and the left eye received this same amount of arginine, absent the tPA. On Day 1, prednisolone treatments were also begun simultaneously on both eyes.
Methods. In this experiment, the inventor sought to detect the effects of tPA treatment on prevention of steroid-induced IOP elevation. In 4 sheep tPA was injected in one eye (100 μg) and they were started on prednisolone acetate three times a day in both eyes. Animals were monitored for 11 days on continuous treatment.

[6] = test system: Mmp-2, Mmp-9, Mmp-13 and Plat mRNA; assay: Mmp and Plat expression in protein treated C57BL/6J eyes without steroids (Example 15); format: in vivo, mouse; settings: non-steroid treated C57BL/6 eyes; group means versus BSA; p>0.05
[7] = 2 days after intravitreal protein

tPA: recombinant human tissue plasminogen activator (ACTILYSE; Boehringer Ingelheim), enzymatically active
Mmp-2 expression compared to BSA treated eyes [1, 7]: no significant difference
Mmp-9 expression compared to BSA treated eyes [1, 7]: not detected
Mmp-13 expression compared to BSA treated eyes ([1]; 2 days after intravitreal protein, p<0.01): significantly higher
Mmp-9 expression compared to BSA treated eyes ([1]; 5 days treatment): higher
Mmp-13 expression compared to BSA treated eyes ([1]; 5 days treatment): significantly higher
Mmp-2 expression compared to BSA treated eyes ([1]; 5 days treatment, p>0.05): no significant difference
doses with reported retinal toxicity [2]: 50-100 lag
effect on outflow facility [3]: did not increase outflow facility
effect on IOP [4]: no effect
effect on steroid-induced IOP elevation ([5]; 100 μg in one eye concurrent with prednisolone acetate three times a day): prevented IOP elevation
ocular findings ([5]; 100 μg tPA): Transient injection and corneal clouding was observed in some eyes
gene expression changes in Mmp-2, Mmp-9, and Mmp-13 [6]: not significantly different
